Experimental data taken from patent US20130089502A1, “PET RADIOPHARMACEUTICALS FOR DIFFERENTIAL DIAGNOSIS BETWEEN BILATERAL AND UNILATERAL CONDITIONS OF PRIMARY HYPERALDOSTERONISM” (UNIVERSITAT DES SAARLANDES, priority 2010, published 2013).

Experiments:
[1] = target: T1, human CYP11B2 (aldosterone synthase) (Homo sapiens, UniProt P19099); assay: Inhibition of human CYP11B2 (aldosterone synthase) expressed in Y1 cells; format: cell-based; details: hsCYP11B2-expressing Y1 cells; substrate 1 μM; inhibitor 0.1 nM-10 μM; 48 hours incubation
T1 construct: expressed in transfected cells; host or cells: Y1 cells
T1 sequence (P19099 25-503): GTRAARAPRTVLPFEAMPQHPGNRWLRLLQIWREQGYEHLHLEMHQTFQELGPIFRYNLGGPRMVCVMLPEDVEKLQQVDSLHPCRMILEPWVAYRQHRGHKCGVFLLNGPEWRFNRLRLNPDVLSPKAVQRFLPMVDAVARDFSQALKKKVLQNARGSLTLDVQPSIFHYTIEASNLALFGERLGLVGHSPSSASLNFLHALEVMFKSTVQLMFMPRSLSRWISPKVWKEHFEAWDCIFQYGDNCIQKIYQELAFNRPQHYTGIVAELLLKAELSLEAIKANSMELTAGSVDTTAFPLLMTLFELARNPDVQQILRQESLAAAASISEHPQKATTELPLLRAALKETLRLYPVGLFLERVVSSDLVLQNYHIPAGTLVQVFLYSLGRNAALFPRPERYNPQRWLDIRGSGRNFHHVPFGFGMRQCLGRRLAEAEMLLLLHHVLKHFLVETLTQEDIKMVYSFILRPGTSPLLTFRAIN
Procedure: (§1) Several non-radioactive fluorinated analogs of the above radioactive tracers were prepared for testing affinity for CYP11B2 (aldosterone synthase), expressed as IC50, and selectivity for CYP11B2 over CYP11B1 (11β-hydroxylase), referred to herein as the selectivity factor, in vitro as follows:
(§2) To conduct in vitro testing of nonradioactive compounds 1a*, 1b*, 1j*, 2a*, 2c*, 2d*, and 2e* to determine IC50 values for inhibition of CYP11B1 and CYP11B2, human CYP11B1 and CYP11B2 enzymes were expressed in Y1 cells using liposome/lipid-mediated DNA transfection. To evaluate CYP11B1 and CYP11B2 inhibition, hsCYP11B1- and hsCYP11B2-expressing Y1 cells were subcultured on 6-well plates (0.5×10^6 cells/well) in 2 ml of culture medium. The enzyme reaction was started after 24 hours by the addition of 1 ml culture medium containing either 11-deoxycortisol (RSS) or 11-deoxycorticosterone (DOC) as substrate and the corresponding inhibitor. RSS and DOC were dissolved in ethanol to a final test concentration of 1 μM. For determination of IC50 values, the inhibitors were added to the culture medium at concentrations between 0.1 nM-10 μM and incubated for 48 hours. Cells which were treated in the same way but without inhibitors, served as controls. As further controls, untransfected Y1 cells were also incubated with RSS and DOC, respectively. […]

[2] = target: T2, human CYP11B1 (11β-hydroxylase) (Homo sapiens, UniProt P15538); assay: Inhibition of human CYP11B1 expressed in Y1 cells, used for the selectivity factor versus CYP11B2; format: cell-based; details: ratio of IC50 values in hsCYP11B1- and hsCYP11B2-expressing Y1 cells; 48 hours incubation
T2 construct: expressed in transfected cells; host or cells: Y1 cells
T2 sequence (P15538 25-503): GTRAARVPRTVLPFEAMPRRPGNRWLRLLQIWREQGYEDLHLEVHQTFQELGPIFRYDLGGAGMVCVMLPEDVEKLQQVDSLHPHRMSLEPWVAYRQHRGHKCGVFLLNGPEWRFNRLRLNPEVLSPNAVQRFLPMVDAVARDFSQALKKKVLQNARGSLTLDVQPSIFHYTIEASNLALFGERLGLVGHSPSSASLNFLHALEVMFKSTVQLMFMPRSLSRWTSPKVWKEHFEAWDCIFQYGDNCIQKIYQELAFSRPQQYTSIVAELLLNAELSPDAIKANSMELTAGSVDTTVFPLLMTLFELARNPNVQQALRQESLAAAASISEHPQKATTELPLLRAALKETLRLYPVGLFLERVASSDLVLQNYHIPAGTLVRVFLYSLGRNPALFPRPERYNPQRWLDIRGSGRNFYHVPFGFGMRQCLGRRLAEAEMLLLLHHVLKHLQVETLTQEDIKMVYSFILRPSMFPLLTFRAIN
Procedure: as §1, §2

IC50 [1]	Selectivity Factor (IC50 CYP11B1/IC50 CYP11B2) [2]	SMILES
6.5 ± 3.8 nM	104	COc1ccc2cc(-c3cncc(OCCF)c3)ccc2c1 [Compound 1a, 3-(6-methoxy-2-naphthyl)-5-(2-fluoroethoxy)pyridine]
15.8 ± 5.1 nM	>100	FCCOc1ccc2cc(-c3cncc4ccccc34)ccc2c1 [Compound 1j]
